Read-outs that look alike come from different tables or passages of the source.

The target of one series is T1, ePL tagged IDO1 (Homo sapiens, UniProt P14902).
T1 construct: expressed in transfected cells; host or cells: HeLa cells transduced with BacMam virus
Briefly: CETSA (Cellular Thermal Shifting assay). It is filed as binding. The note with it: Hela cells, 3 hours at 37° C., heated at 53° C. for 3 min. As to the method:
Cellular Thermal Shifting assays were used to directly monitor the ligand binding to target proteins in cells. Hela cells were transduced with BacMam virus expressing ePL tagged IDO1 overnight. The cells were then plated over the compounds for 3 hours at 37° C. in cell culture medium containing 1% FBS. The plates were then sealed and heated at 53° C. for 3 min. InCell Hunter reagents were added and luminescence was read in 90 min.

In series [1] the test system is human peripheral blood mononuclear cells (PBMC). Briefly: PBMC cytotoxicity assay (CellTiter-Glo). Type of series: cell-based. As to conditions: cytotoxicity in stimulated PBMC, recorded as pCC50. On the technique in general: Cellular ATP, detected with luciferase, serves as a proxy for viable cell number.

T1 sequence (P14902 whole entry): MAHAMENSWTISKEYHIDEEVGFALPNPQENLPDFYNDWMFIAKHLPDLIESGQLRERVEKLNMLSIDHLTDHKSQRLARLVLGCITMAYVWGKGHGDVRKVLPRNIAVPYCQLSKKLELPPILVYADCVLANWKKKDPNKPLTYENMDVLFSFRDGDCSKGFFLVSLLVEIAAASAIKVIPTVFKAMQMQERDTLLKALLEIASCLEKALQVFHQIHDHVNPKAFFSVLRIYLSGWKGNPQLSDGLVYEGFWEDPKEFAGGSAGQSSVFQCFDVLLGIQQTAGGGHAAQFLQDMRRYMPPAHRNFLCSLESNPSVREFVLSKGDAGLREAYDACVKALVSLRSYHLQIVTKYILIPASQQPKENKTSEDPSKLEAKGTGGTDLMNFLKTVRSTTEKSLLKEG

In the case of `CC(C)CN(c1ncc([C@H](C)CC(=O)O)cc1Nc1ccc(Cl)cn1)C1CCOCC1` [Example 6, (R)-3-(5-((5-chloropyridin-2-yl)amino)-6-(isobutyl(tetrahydro-2H-pyran-4-yl)amino)pyridin-3-yl)butanoic acid], the EC50 was 575 nM on ePL tagged IDO1 (first value, read-out: pXC50_1 (converted)) and 759 nM at ePL tagged IDO1 (second value, read-out: pXC50_2 (converted)). Further, the “PBMC_TOX PXC50” value in series [1] was less than 5.0.

(Values after patent publication US10787442B2, “Modulators of indoleamine 2,3-dioxygenase” (GLAXOSMITHKLINE INTELLECTUAL PROPERTY DEVELOPMENT LIMITED, priority 2016, dated 2020).)
